The species named for assay [1] is Homo sapiens. Kind of assay: Binding affinity to DNA sequence ICB4 assessed as protection of ICB4 from DNAase I cleavage at 100 uM.
Assay [2] has as its system NIH3T3. Kind of assay: Inhibition of NF-Y binding to DNA sequence ICB1 in NIH3T3 cell extracts at 50uM by EMSA. The format is cell-free. Conditions: Homo sapiens. Background: Mobility shift assays separate free from complexed probe on a gel.
Assay [3] has as its system NIH3T3. Put plainly: Inhibition of NF-Y binding to DNA sequence ICB2 in NIH3T3 cell extracts at 50 uM by EMSA. Format: cell-free. Conditions: Homo sapiens.
The species named for assay [4] is Homo sapiens. Put plainly: Binding affinity to DNA sequence ICB2 by SPR.
In assay [5] the test system is NIH3T3. Kind of assay: Increased topoisomerase 2 alpha protein expression in NIH3T3 cells at 10 uM after 4 hrs. The format is functional, cell-based. Conditions: Mus musculus.
For assay [6], the species on record is Homo sapiens. Put plainly: Binding affinity to DNA sequence ICB1 assessed as protection of ICB1 from DNAase I cleavage at 100 uM.
Assay [7] has as its system NIH3T3. Put plainly: Inhibition of NF-Y binding to DNA sequence ICB2 in NIH3T3 cell extracts at 1 to 5 uM by EMSA. Particulars: Homo sapiens. The format is cell-free.
For assay [8], the system named is NIH3T3. Put plainly: Induction of topoisomerase 2 alpha protein expression in NIH3T3 cells after 24 hrs. The format is functional, cell-based. Particulars: Mus musculus.

Active and inactive are the calls of the source. The calls are words filed in the database; no cut-off is given here.

In the case of `CN(C)CCNC(=O)c1cc(NC(=O)c2nc(NC(=O)c3cc(NC=O)cn3C)cn2C)cn1C`, the outcome in the assay listed under Homo sapiens [1], in the assay on NIH3T3 [2] and in the assay filed under Homo sapiens [6] was inactive. The outcome with NIH3T3 [3] and in the assay on NIH3T3 [5] was Active. In the assay listed under Homo sapiens [4], this compound had an Activity of 200000 M⁻¹.

Turning to `CN(C)CCNC(=O)c1cc(NC(=O)c2cc(NC(=O)c3cc(NC(=O)CCCNC(=O)c4nc(NC(=O)c5nc(NC(=O)c6cccn6C)cn5C)cn4C)cn3C)cn2C)cn1C`, the outcome in the assay on NIH3T3 [7] and with NIH3T3 [8] was Active.
